Results on three compounds are retold here after patent US20250359549A1, “PESTICIDE BACTERICIDAL COMPOSITION, WATER DISPERSIBLE GRANULE AND PREPARATION METHOD AND USE THEREOF” (QINGDAO RAINBOW CHEMICAL CO., LTD., priority 2023, published 2025).

Read-outs that look alike come from different tables or passages of the source. Some results are limits rather than exact numbers.

The subject of data set [1] is plasmopara viticola. Nature of the data set: Indoor toxicity measurement, leaf disk method. Type of data set: in vivo. The settings on record: grape downy mildew; for EC50: Plasmopara viticola, foliar, read-out: Measured EC50 value (X2). The protocol:
After the pesticide solution was naturally dried in air, each treated leaf disc with an upward back was placed in a culture dish, and absorbent paper moistened with the same pesticide solution was placed at the bottom of the culture dish. 15 leaf discs were placed in a concentric circle for each dish, with 4 repetitions for 1 dish treated. Blank control was treated with a 0.1% Tween-80 aqueous solution. Inoculation was performed after 24 h of pesticide treatment. […] The spore sac suspension was cultured with an artificial climate chamber. […] The severity of the disease was determined according to the percentage of the diseased area on the leaf disc to the leaf disc area, the number of diseased leaf discs and the severity of the disease were recorded, and the disease index and prevention and control effect were calculated according to the formula. […] The toxicity regression curve equation y=a+bx and the correlation coefficient r were obtained, and the EC50 of each single agent and different proportions of mixtures was calculated based on the regression equation. Based on the EC50 values of each single agent and compounded agent, the synergistic coefficients (SR) of each compounded agent were calculated according to Wadley method, and the compounding effect was evaluated by using SR value. […] In equations (1) and (2), SR is the synergistic coefficient of the mixture; X1 is the theoretical EC50 value of the mixture, unit: milligrams per liter (mg/L); X2 is the measured EC50 value of the mixture, unit: milligrams per liter (mg/L). […] X1′ is the theoretical value of the mixture, unit: milligrams per liter (mg/L); X2 is the measured value of the mixture, unit: milligrams per liter (mg/L). […] Similarly, the synergistic coefficients SRs of chlorothalonil and picoxystrobin (A+C)+tebuconazole (B) (referred to as (A+C)+B), tebuconazole and picoxystrobin (B+C)+chlorothalonil (A) (referred to as (B+C)+A) can be calculated.

For data set [2] the following is noted: 20° C., cited from earlier work.
For data set [3] the following is noted: 25° C.; cited from earlier work.
The conditions of data set [4]: cited from earlier work.

In the case of `CC(C)(C)C(O)(CCc1ccc(Cl)cc1)Cn1cncn1` (racemic) [Tebuconazole], the EC50 (in general, the concentration needed to bring the measured effect to its halfway point) in data set [1] was 3.29 µg/mL. The “solubility in an organic solvent” value in data set [2] (dichloromethane) is greater than 200 mg/mL; in data set [2] (hexane), less than 0.1 mg/mL.
As to `N#Cc1c(Cl)c(Cl)c(Cl)c(C#N)c1Cl` [Chlorothalonil], the EC50 in data set [1] stood at 24.6 µg/mL. The “distribution coefficient log P” value in data set [3] is listed as 2.92. In addition, the Hydrolysis result in data set [4] (pH>9) was “slowly hydrolyzed”. Moreover, the Stability result in data set [4] (storage at room temperature, weak alkaline and acidic aqueous solutions, UV radiation) is “stably stored at room temperature, and stable to weak alkaline and acidic aqueous solutions and UV radiation”.
Regarding `CO/C=C(/C(=O)OC)c1ccccc1COc1cccc(C(F)(F)F)n1` [Picoxystrobin], in data set [1], the “Measured EC50 value (X2)” value was 2.48 µg/mL.
